{
  "source": "a melting point compilation (Tetko et al.)",
  "data": [
    {"units": {"melting point": "°C"}, "values": [
      {"smiles": "O=C(O)c1cc(I)cc(C(F)(F)F)c1", "melting point": "182 to 184"},
      {"smiles": "Cc1cc(N)ccc1NC(=O)CN1CCCC1=O", "melting point": "209 to 211"},
      {"smiles": "Nc1ccc(NS(=O)(=O)c2c(Cl)cccc2Cl)cc1", "melting point": "161 to 163"},
      {"smiles": "CNC(=O)c1cc(Oc2ccccc2N)ccn1", "melting point": "115 to 117"},
      {"smiles": "O=C(O)C1CCCN(C(=O)c2ccc(Cl)cc2)C1", "note": "(configuration not stated)", "melting point": "145 to 152"},
      {"smiles": "O=Cc1cc(-c2ccccc2)ccc1O", "melting point": "99 to 101"},
      {"smiles": "CC(=O)Nc1nc(C(=O)O)cs1", "melting point": "299 to 301"},
      {"smiles": "CN(CC(=O)Nc1ccc(Cl)c(C(F)(F)F)c1)C(=O)CCl", "melting point": "164 to 165"},
      {"smiles": "CCC(C)n1nccc1N", "note": "(configuration not stated)", "melting point": "30 to 32"},
      {"smiles": "Cc1cccc(-n2c(C)cc(/C=C(\\C#N)C(=O)O)c2C)c1", "melting point": "75 to 77"},
      {"smiles": "O=C(O)C1(C(=O)Nc2ccc(F)cc2)CC1", "melting point": "179 to 181"},
      {"smiles": "CC(N)c1ccc(NC(=O)NC2CC2)cc1", "note": "(configuration not stated)", "melting point": "142 to 144"},
      {"smiles": "Cc1cc(C)n2nc(C(=O)O)nc2n1", "melting point": "178 to 180"},
      {"smiles": "Sc1nnc2sc3ccccc3n12", "melting point": "252 to 254"},
      {"smiles": "O=C1NC(=O)N(CCc2cccs2)C1=O", "melting point": "118 to 120"},
      {"smiles": "COCCn1cnc2c1c(=O)n(CC(=O)O)c(=O)n2Cc1ccccc1", "melting point": "131 to 133"},
      {"smiles": "O=C(O)C1CCCS1", "note": "(configuration not stated)", "melting point": "48 to 50"},
      {"smiles": "Oc1cn(-c2ccccc2)nn1", "melting point": "160 to 162"},
      {"smiles": "O=C1C(Br)CCN1c1ccc(F)c(Cl)c1", "note": "(configuration not stated)", "melting point": "99 to 101"},
      {"smiles": "Cc1cc(C(=O)O)c(Cl)cc1F", "melting point": "149 to 151"},
      {"smiles": "O=C(O)c1ccc(CN2C(=O)C=CC2=O)cc1", "melting point": "163 to 165"},
      {"smiles": "COc1cc(=O)[nH]c(NC(=O)CCl)n1", "melting point": "189 to 191"},
      {"smiles": "Cc1cc(C)cc(OCCN(C)C(=O)CCl)c1", "melting point": "70 to 72"},
      {"smiles": "CC(CC(=O)O)C(=O)c1cccc(F)c1", "note": "(configuration not stated)", "melting point": "59 to 61"},
      {"smiles": "Nc1ccc(CCN2CCOC2=O)cc1", "melting point": "192 to 194"},
      {"smiles": "NC(=O)Cn1ccc([N+](=O)[O-])n1", "melting point": "159 to 161"},
      {"smiles": "CC1CC(=O)N(Cc2ccccc2)c2ccccc2N1", "note": "(configuration not stated)", "melting point": "110 to 112"},
      {"smiles": "Nc1cccc(Cn2nc3ccccn3c2=O)c1", "melting point": "127 to 129"},
      {"smiles": "O=C(O)CC(=O)c1ccc(O)cc1", "melting point": "89 to 91"},
      {"smiles": "NC(=S)NC1CCCCCC1", "melting point": "89 to 91"},
      {"smiles": "O=C(O)CCn1nnc2ccccc2c1=O", "melting point": "195 to 197"},
      {"smiles": "NC(=O)c1ccccc1N1CCC(N)C1", "note": "(configuration not stated)", "melting point": "138 to 140"},
      {"smiles": "O=[N+]([O-])c1ccc(CBr)c(F)c1", "melting point": "59 to 61"},
      {"smiles": "O=Cc1cc(Cl)c2c(c1)OCCO2", "melting point": "79 to 83"},
      {"smiles": "Cc1cc(N)nn1C", "melting point": "49 to 51"},
      {"smiles": "CC(=O)c1c(C)[nH]c2ccccc12", "melting point": "195 to 197"},
      {"smiles": "Nc1ncc(Cc2cc(Cl)ccc2Cl)s1", "melting point": "110 to 114"},
      {"smiles": "CC(C)CN1CCCC(C(=O)O)C1", "note": "(configuration not stated)", "melting point": "108 to 110"},
      {"smiles": "O=C1CC(C(=O)O)C1", "melting point": "58 to 60"},
      {"smiles": "COc1cc(C)ccc1C(=O)CBr", "melting point": "77 to 79"},
      {"smiles": "CCCS(=O)(=O)N1CCCCC1C(=O)O", "note": "(configuration not stated)", "melting point": "84 to 86"},
      {"smiles": "Oc1cc2c(nn1)CCNC2", "melting point": "211 to 213"},
      {"smiles": "CNS(=O)(=O)c1cc(C(=O)O)ccc1F", "melting point": "209 to 211"},
      {"smiles": "Nc1ccc(N2CCc3sccc3C2)cc1", "melting point": "61 to 63"},
      {"smiles": "CC(C)(C)Oc1ncccc1O", "melting point": "86 to 88"},
      {"smiles": "O=C1CCC(Cc2cccc(O)c2)O1", "note": "(configuration not stated)", "melting point": "102 to 104"},
      {"smiles": "CC(C(=O)O)n1c(S)nc2ccccc2c1=O", "note": "(configuration not stated)", "melting point": "238 to 240"},
      {"smiles": "CCN1C(=O)C(=O)c2ccc(Br)cc21", "melting point": "118 to 120"},
      {"smiles": "CCOc1ccc(-c2nnc(S)n2N)cc1", "melting point": "208 to 212"},
      {"smiles": "CC(C)(C)C1CCc2sc(-c3nnc(CCl)o3)cc2C1", "note": "(configuration not stated)", "melting point": "89 to 91"},
      {"smiles": "Cn1c(C=O)nc2cc(C(F)(F)F)ccc21", "melting point": "111 to 113"},
      {"smiles": "CCCN1CCCC(C(=O)O)C1", "note": "(configuration not stated)", "melting point": "137 to 139"},
      {"smiles": "Cc1ccc(-n2[nH]c(-c3ccco3)cc2=N)cc1", "melting point": "93 to 95"},
      {"smiles": "CN(C)S(=O)(=O)c1cccc(NC(=O)CCl)c1", "melting point": "74 to 78"},
      {"smiles": "O=C(Cn1c(Cl)nc2ccccc21)c1ccccc1", "melting point": "168 to 170"},
      {"smiles": "O=C(O)c1cc2c(s1)CCC2", "melting point": "199 to 201"},
      {"smiles": "O=C1COc2ccc(Cl)cc2N1", "melting point": "211 to 213"}
    ]}
  ]
}
